# Test results published in patent US20250017958A1, “COMBINATORIAL THERAPEUTIC APPROACH FOR FRIEDREICH'S ATAXIA” (University of Florida Research Foundation, Incorporated, priority 2021, published 2025).
# Entries after “also recorded” stand apart in the source; their conditions may differ.
# Assays:
# [1] = test system: FRDAkd mice; test: Survival of FRDAkd mice after FXN knockdown (DOX); format: in vivo, mouse; conditions: combination versus individual treatment
# Method: FIG. 4. […] No mortality was observed FRDAkd mice (DOX) treated with quercetin, taurine, and EGCG. FRDAkd mice were treated with doxycycline (DOX for FXN knockdown) or with doxycycline plus 100 mg/kg/day taurine, 35 mg/kg/day quercetin, and 4.6 mg/kg/day EGCG, and 0.5 mg/kg/day of ferrous sulfate for 16 weeks. N=10 animals per group.
# [2] = test system: NRF2; conditions: FRDA patients with moderate dysfunction (Lynch D R et al. 2021); cited from earlier work
# [3] = previous studies (Lesjak M et al. 2019); cited from earlier work
# [4] = test system: FXN; test: FXN expression in tissues of FRDAkd mice (Western blot); format: in vivo, mouse; conditions: for expression of FXN (Western blot): 35 mg/kg/day quercetin, 625 mg/kg doxycycline
# Method: (§1) FIG. 3A-B. Western blot analysis of FXN and NRF2 in FRDA cells and FRDAkd mice after quercetin treatment.
# (§2) FIG. 3C-D. Western blot analysis of FXN and NRF2 in FRDA cells and FRDAkd mice after quercetin treatment. […] Tg Low Dox animals were treated with 625 mg/kg doxycycline (FXN knockdown) and Tg Low Dox+Quercetin animal was provided with 625 mg/kg doxycycline plus 35 mg/kg/day of quercetin. […] Overall, quercetin increased the expression of FXN and NRF2 in both in vitro and in vivo conditions.
# [5] = test system: FXN; test: FXN expression in FRDA patient fibroblasts (Western blot, qPCR); format: cell-based, human
# Method: FIG. 2A. […] Expression levels were determined using Real-time PCR and normalized to Hprtl. Experiments were conducted in triplicates and values expressed as mean±SEM. One-way ANOVA and 0.05**
# (§3) FIG. 2B. […] N=3. One-way ANOVA and Welch's t-test, ±SEM. *p≤0.05, **p≤0.01, ***p 0.001.
# as §1, §2
# [6] = test system: NRF2; test: NRF2 expression in FRDA patient fibroblasts (Western blot, qPCR); format: cell-based, human
# Description: as §3, §1
# [7] = test system: iron metabolism-related genes; test: Expression of iron metabolism-related genes in cell lines (Real-time PCR); format: cell-based, human; conditions: various cell lines, including FRDA patient fibroblast cell lines
# Method: FIG. 2A. Graphs illustrating expression levels of frataxin (FXN) and various iron metabolism-related genes in control fibroblasts (age and sex matched) or fibroblasts from a patient with Friedreich's Ataxia (FRDA) treated with vehicle or 75 μM quercetin. Expression levels were determined using Real-time PCR and normalized to Hprtl. Experiments were conducted in triplicates and values expressed as mean±SEM. One-way ANOVA and 0.05**
# [8] = test system: NRF2; test: NRF2 expression in tissues of FRDAkd mice (Western blot); format: in vivo, mouse; conditions: for expression of NRF2 (Western blot): 35 mg/kg/day quercetin, 625 mg/kg doxycycline
# Method: as §1, §2
# [9] = test system: FXN; conditions: phase 3 randomized controlled trial, FRDA; cited from earlier work
# [10] = several tissues from quercetin-treated FRDAkd mice (in vivo), summary statement
# [11] = FRDA fibroblast cell line, 24 hours quercetin, 75 μM and 100 μM
# [12] = FRDA patient fibroblast cell lines (in vitro), summary statement
# [13] = fibroblasts from patients with FRDA, quercetin dose series
molecule,measurement,setting,value
"O=C(O[C@@H]1Cc2c(O)cc(O)cc2O[C@@H]1c1cc(O)c(O)c(O)c1)c1cc(O)c(O)c(O)c1 [EGCG, (2R,3R)-3′,4′,5,5′,7-Pentahydroxyflavan-3-yl 3,4,5-trihydroxybenzoate]",survival in mouse FRDA models,[1],did not improve survival rates
CC1(C)CC[C@]2(NC(=O)C(C)(F)F)CC[C@]3(C)[C@H](C(=O)C=C4[C@@]5(C)C=C(C#N)C(=O)C(C)(C)[C@@H]5CC[C@]43C)[C@@H]2C1 [omaveloxolone],neurological function,[2],improved
"O=c1c(O)c(-c2ccc(O)c(O)c2)oc2cc(O)cc(O)c12 [quercetin, 3,3′,4′,5,7-Pentahydroxyflavone]",survival in mouse FRDA models,[1],did not improve survival rates
same,serum and tissue iron,[3],depletion
same,expression of FXN (Western blot),"[4]; FRDAkd mice heart, eight weeks",Increased expression
same,expression of FXN (Western blot),"[4]; FRDAkd mice liver, three weeks",Increased expression
same,FXN expression,[4]; [10],increase; also recorded: enhanced
same,"expression of FXN (Western blot, independent replication)","[5]; FRDA fibroblast cell line, 24 hours quercetin, 7 μM dose",increased expression
same,expression of FXN (Western blot),[5]; [11],Increased expression
same,FXN expression,[5]; [12],increase; also recorded: enhanced
same,FXN marker gene expression (qPCR),[5]; [13],dose-dependent effects
same,expression of NRF2 (Western blot),[6]; [11],Increased expression
same,NRF2 expression,[6]; [12],increase; also recorded: enhanced
same,NRF2 marker gene expression (qPCR),[6]; [13],dose-dependent effects
same,expression of several genes involved in iron metabolism,[7],increase expression
same,expression of NRF2 (Western blot),"[8]; FRDAkd mice heart, eight weeks",Increased expression
same,expression of NRF2 (Western blot),"[8]; FRDAkd mice liver, three weeks",Increased expression
same,NRF2 expression,[8]; [10],increase; also recorded: enhanced
"NCCS(=O)(=O)O [taurine, 2-Aminoethane-1-sulfonic acid]",survival in mouse FRDA models,[1],did not improve survival rates
"interferon γ-1b: treatment option for FRDA to increase FXN levels, dropped at phase 3 (protein, UniProt P01579 24-161, looked up) Interferon gamma: QDPYVKEAENLKKYFNAGHSDVADNGTLFLGILKNWKEESDRKIMQSQIVSFYFKLFKNFKDDQSIQKSVETIKEDMNVKFFNSNKKKRDDFEKLTNYSVTDLNVQRKAIHELIQVMAELSPAAKTGKRKRSQMLFRG",outcome measures,[9],failure to show any improvement
